Experimental findings from patent publication EP0873131B1, “PROCESSES FOR PREPARATION OF RG3 AND RG5 GINSENOSIDES” (Cheil Je Dang Co., priority 1995, dated 1997) are described below.

One series has as its system aortic rings. The experiment in a line: Vasodilation of phenylephrine-contracted rat thoracic aortic rings (organ chamber, isometric tension). Details: species or system Sprague-Dawley(SD) rats. The following applies: for effect to the blood vessel without endothelium / relaxation to the blood vessel with endothelium: aortic rings contracted by 10^-6M phenylephrine; for effect to the blood vessel without endothelium: endothelium removed mechanically; for relaxation to the blood vessel with endothelium: substance alone; for relaxation to the blood vessel with endothelium / vasodilation in the presence of methylene blue(MB) / vasodilation in the presence of nitro-L-arginine(NLA): with endothelium; for vasodilation in the presence of methylene blue(MB): together with 10^-6M methylene blue(MB), an inhibitor of soluble guanylate cyclase; for vasodilation in the presence of nitro-L-arginine(NLA): together with 10^-6M nitro-L-arginine(NLA), an inhibitor of nitric oxide synthase. Here is the method: Sprague-Dawley(SD) rats weighing 300-400g were sacrificed and their thoracic aortae were removed quickly, and then placed in a Krebs-Ringer-sodium bicarbonate solution (control solution, NaCl 118.3; KCl 4.7; MgSO4 1.2; KH2PO4 1.2; CaCl2 2.5; NaHCO3 25.0; CaEDTA 0.016 and glucose 11.1mM). Blood within the aortae, adipose and connective tissues surrounding the blood vessel were removed and then the clean aortae were cut down to prepare the aortic rings having 2-3mm length. The aortic rings were suspended vertically in an organ chamber filled with 25ml of control solution (pH 7.4). In some aortic rings, the endothelium was removed mechanically by rolling the rings 7 to 8 times on a tissue towel with pincette. The bottom of aortic ring was fixed to the organ chamber and the top thereof was connected to a transducer coupler through stirrups for recording of isometric tension.
To the aortic rings showing a stable contraction induced by addition of 10^-6M phenylephrine to the organ chamber was added ginsenoside Rg3 or Rg5-dimethylsulfoxide solution alone or together with 10^-6M methylene blue(MB) or 10^-6M nitro-L-arginine(NLA) in order to observe the vasodilation thereof. The degree of contraction by 10^-6M phenylephrine was set to 100% and the degree of relaxation caused by ginsenoside Rg3 or Rg5 was represented as percent(%) with respect thereto.
Vasodilation of the processed panaxadiol saponin fraction obtained in Example 7 as mentioned above was determined according to the same experimental procedure as Test Example 1.

Series [1] deals with Human umbilical vein endothelium cells(HUVEC). Description: Cytotoxicity to HUVEC cells (MTT, 48 hours). The conditions noted are these: for cytotoxicity: compared with solvent alone (Rg3: dimethylsulfoxide; Rg5: distilled water). Type of series: cell-based. Here is the method: Human umbilical vein endothelium cells(HUVEC) cultured in M199 medium were suspended in physiological saline to a concentration of 20000 cells/180µl. The cell suspension was introduced into each well of 96-well plate in an amount of 180µl, and then 20µl of dimethylsulfoxide as a solvent or the same volume of Rg3 dissolved in dimethylsulfoxide was added thereto. The plate was incubated for 48 hours in a cell-incubator of 37°C while keeping 5% CO2. Then, 50µl of MTT(3-(4,5-dimethyl-thiazol-2'-yl)-2,5-diphenyltetrazolium bromide) dissolved in phosphate buffered solution in a concentration of 2mg/ml was added thereto and incubated again for 4 hours under the same condition as mentioned above. Thereafter, the supernatant was removed and 200µl of dimethylsulfoxide was added to measure the absorbance at 540nm. The absorbance measured was converted into cell number to determine IC50 of dimethylsulfoxide solvent and Rg3 which is the concentration to inhibit the cell growth by 50% and can be used as an index of cytotoxicity.
Human umbilical vein endothelium cells(HUVEC) cultured in M199 medium were suspended in physiological saline to a concentration of 20000 cells/180µl. The cell suspension was introduced into each well of 96-well plate in an amount of 180µl, and then 20µl of distilled water as a solvent or the same volume of Rg5 dissolved in distilled water was added thereto. The plate was incubated for 48 hours in a cell-incubator of 37°C while keeping 5% CO2. Then, 50µl of MTT(3-(4,5-dimethyl-thiazol-2'-yl)-2,5-diphenyltetrazolium bromide) dissolved in phosphate buffered solution in a concentration of 2mg/ml was added thereto and incubated again for 4 hours under the same condition as mentioned above. Thereafter, the supernatant was removed and 200µl of dimethylsulfoxide was added to measure the absorbance at 540nm.

On to ginsenoside Rg3, for which, in the series on aortic rings, the “effect to the blood vessel without endothelium” value was “no effect”, the “relaxation to the blood vessel with endothelium” value is “concentration-dependent relaxation”, the “vasodilation in the presence of methylene blue(MB)” value is “significantly inhibited” and the “vasodilation in the presence of nitro-L-arginine(NLA)” value is “significantly inhibited”. Also, in series [1], the cytotoxicity entry is “lower cytotoxicity than the solvent”. Moreover, the “IC50 (concentration to inhibit the cell growth by 50%)” value in series [1] (dissolved in dimethylsulfoxide) amounted to 26.7 mg/L.
Regarding `CC(C)=CC/C=C(\C)[C@H]1CC[C@]2(C)[C@@H]1[C@H](O)C[C@@H]1[C@@]3(C)CC[C@H](O[C@@H]4O[C@H](CO)[C@@H](O)[C@H](O)[C@H]4O[C@@H]4O[C@H](CO)[C@@H](O)[C@H](O)[C@H]4O)C(C)(C)[C@@H]3CC[C@]12C` [ginsenoside Rg5], in the series with aortic rings, the “effect to the blood vessel without endothelium” value is on record as “no effect”, the “relaxation to the blood vessel with endothelium” value is reported as “concentration-dependent relaxation”, the “vasodilation in the presence of methylene blue(MB)” value is given as “significantly inhibited” and the “vasodilation in the presence of nitro-L-arginine(NLA)” value is listed as “significantly inhibited”. The cytotoxicity entry in series [1] is reported as “no cytotoxicity”.
